Legend:
[1] = target: T1, APOL1 G2 (Homo sapiens, UniProt O14791, DEL388-389); assay: APOL1-mediated calcium transport (calcium influx) assay, HEK T-REx/GCaMP6f/APOL1 G2 K6.3 cells, FLIPR TETRA; assay type: cell-based; settings: prevention of calcium influx; geometric mean of at least 2 assay runs; † = average of a technical replicate from a single assay run
T1 construct: expressed in transfected cells; host or cells: HEK293 T-REx clonal line stably expressing GCaMP6f (HEK T-REx/GCaMP6f/APOL1 G2 K6.3), doxycycline induced
T1 sequence (O14791 with tags, fused parts or gaps DEL388-389): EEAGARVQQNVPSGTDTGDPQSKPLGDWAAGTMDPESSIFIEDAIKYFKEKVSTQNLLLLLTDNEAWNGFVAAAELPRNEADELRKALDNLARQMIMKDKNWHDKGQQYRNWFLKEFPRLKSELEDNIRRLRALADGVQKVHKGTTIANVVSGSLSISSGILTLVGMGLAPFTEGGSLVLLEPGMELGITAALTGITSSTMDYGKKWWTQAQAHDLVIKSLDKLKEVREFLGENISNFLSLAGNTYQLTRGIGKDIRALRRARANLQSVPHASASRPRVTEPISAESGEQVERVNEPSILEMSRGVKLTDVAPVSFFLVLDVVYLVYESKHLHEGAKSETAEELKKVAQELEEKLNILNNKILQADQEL
In short: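 A HEK293 T-REx clone stably expressing GCaMP6f had APOL1 G2 induced with doxycycline (20 ng/mL solution added) for 6 h. Cells were then washed into Ca2+-free Tyrode's buffer (pH 7.4) and preincubated with compounds (duplicate 8-point) for 10 min at room temperature. Ca2+ injection to 5 mM final produced FLIPR GCaMP fluorescence, giving AC50 for influx inhibition (geometric mean, ≥2 runs).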

[2] = tested on: HEK293 cells overexpressing APOL1 G2; assay: APOL1 G2 HEK293 cell rescue assay (reversal of cell death caused by overexpression of APOL1); assay type: cell-based; settings: Homo sapiens, HEK293, HEK293 overexpressing APOL1 G2; geometric mean of at least 2 assay runs; † = single assay run
In short: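 Each compound tested in duplicate wells on one plate per run, with values usually the geometric mean across at least two runs on different days, occasionally from one run only. Read-out: concentration giving half-maximal rescue of APOL1 G2 overexpression-induced death of HEK293 cells.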

Row | Structure (SMILES) | AC50 [1] | EC50 [2]
1 | CP(C)(=O)C1(c2ccc(OCCN3CCC4(CC3)C(=O)Nc3ccc(Cl)cc34)cc2)CC1 [Compound 343, 5-chloro-1′-(2-{4-[1-(dimethylphosphoryl)cyclopropyl]phenoxy}ethyl)-1,2-dihydrospiro[indole-3,4′-piperidin]-2-one] | 437 nM | 162 nM
2 | C[C@]1(O)C[C@@H](N2C(=O)Cc3cc(OCCN4CCC5(CC4)C(=O)Nc4ccc(Cl)cc45)cnc32)C1 [Compound 345, 5-chloro-1′-[2-({2-oxo-1-[(cis)-3-hydroxy-3-methylcyclobutyl]-1H,2H,3H-pyrrolo[2,3-b]pyridin-5-yl}oxy)ethyl]-1,2-dihydrospiro[indole-3,4′-piperidin]-2-one] | 469 nM | 36.4 nM
3 | C[C@]1(O)C[C@@H](N2C(=O)Cc3cc(OCCN4CCC5(CC4)C(=O)Nc4ccc(C(F)F)cc45)cnc32)C1 [Compound 346, 5-(difluoromethyl)-1′-[2-({2-oxo-1-[(cis)-3-hydroxy-3-methylcyclobutyl]-1H,2H,3H-pyrrolo[2,3-b]pyridin-5-yl]oxy)ethyl]-1,2-dihydrospiro[indole-3,4′-piperidin]-2-one] | 557 nM | 34.3 nM
4 | C[C@]1(O)C[C@@H](n2ccc3cc(OCCN4CCC5(CC4)C(=O)Nc4ccc(Cl)cc45)cnc32)C1 [Compound 349, 5-chloro-1′-[2-({1-[(cis)-3-hydroxy-3-methylcyclobutyl]-1H-pyrrolo[2,3-b]pyridin-5-yl}oxy)ethyl]-1,2-dihydrospiro[indole-3,4′-piperidin]-2-one] | 199 nM | 25.4 nM
5 | C[C@]1(O)C[C@@H](n2ccc3cc(OCCN4CCC5(CC4)C(=O)Nc4ccc(C(F)F)cc45)cnc32)C1 [Compound 350, 5-(difluoromethyl)-1′-[2-({1-[(cis)-3-hydroxy-3-methylcyclobutyl]-1H-pyrrolo[2,3-b]pyridin-5-yl}oxy)ethyl]-1,2-dihydrospiro[indole-3,4′-piperidin]-2-one] | 113 nM | 18.8 nM
6 | C[C@]1(O)C[C@@H](n2cnc3cc(OCCN4CCC5(CC4)C(=O)Nc4ccc(Cl)cc45)cc(C(F)(F)F)c32)C1 [Compound 352, 5-chloro-1′-[2-({1-[(cis)-3-hydroxy-3-methylcyclobutyl]-7-(trifluoromethyl)-1H-1,3-benzodiazol-5-yl}oxy)ethyl]-1,2-dihydrospiro[indole-3,4′-piperidin]-2-one] | 597 nM | 8.6 nM
7 | C[C@]1(O)C[C@@H](N2C(=O)NCc3cc(OCCN4CCC5(CC4)C(=O)Nc4ccc(Cl)cc45)cnc32)C1 [Compound 356, 5-chloro-1′-[2-({2-oxo-1-[(cis)-3-hydroxy-3-methylcyclobutyl]-1H,2H,3H,4H-pyrido[2,3-d]pyrimidin-6-yl}oxy)ethyl]-1,2-dihydrospiro[indole-3,4′-piperidin]-2-one] | 2490 nM | 50.6 nM
8 | CC(C)(O)c1ncc(OCCN2CCC3(CC2)C(=O)Nc2ccc(Cl)cc23)cc1C(F)(F)F [Compound 371, 5-chloro-1′-(2-{[6-(2-hydroxypropan-2-yl)-5-(trifluoromethyl)pyridin-3-yl]oxy}ethyl)-1,2-dihydrospiro[indole-3,4′-piperidin]-2-one] | 504 nM | 17.2 nM
9 | C[C@]1(O)C[C@@H](n2c(=O)oc3cc(OCCN4CCC5(CC4)C(=O)Nc4ccc(Cl)cc45)cnc32)C1 [Compound 394, 5-chloro-1′-[2-({2-oxo-3-[(cis)-3-hydroxy-3-methylcyclobutyl]-2H,3H-[1,3]oxazolo[4,5-b]pyridin-6-yl}oxy)ethyl]-1,2-dihydrospiro[indole-3,4′-piperidin]-2-one] | 250 nM | 24 nM
10 | O=C1Nc2ccc(Cl)cc2C12CCN(CCOc1cnc(N3CC4(CC(O)C4)C3)nc1)CC2 [Compound 396, 5-chloro-1′-{2-[(2-{6-hydroxy-2-azaspiro[3.3]heptan-2-yl}pyrimidin-5-yl)oxy]ethyl}-1,2-dihydrospiro[indole-3,4′-piperidin]-2-one] | 531 nM | 40.5 nM
11 | CCC1(O)CN(c2ncc(OCCN3CCC4(CC3)C(=O)Nc3ccc(Cl)cc34)cn2)C1 [Compound 397, 5-chloro-1′-(2-{[2-(3-ethyl-3-hydroxyazetidin-1-yl)pyrinlidin-5-yl]oxy}ethyl)-1,2-dihydrospiro[indole-3,4′-piperidin]-2-one] | 416 nM | 45.9 nM
12 | CC(CO)(c1ncc(OCCN2CCC3(CC2)C(=O)Nc2ccc(Cl)cc23)cc1C(F)(F)F)S(C)(=O)=O (centres unmarked) [Compound 401, 5-chloro-1′-(2-{[6-(1-hydroxy-2-methanesulfonylpropan-2-yl)-5-(trifluoromethyl)pyridin-3-yl]oxy}ethyl)-1,2-dihydrospiro[indole-3,4′-piperidin]-2-one] | 603 nM | 36.7 nM
13 | C[C@]1(O)C[C@@H](n2ccc3cc(OCCN4CCC5(CC4)C(=O)Nc4ccc(C#N)cc45)cnc32)C1 [Compound 410, 2-oxo-1′-[2-({1-[(cis)-3-hydroxy-3-methylcyclobutyl]-1H-pyrrolo[2,3-b]pyridin-5-yl}oxy)ethyl]-1,2-dihydrospiro[indole-3,4′-piperidine]-5-carbonitrile] | 623 nM | 64.1 nM
14 | CC(C)(O)c1ncc(OCCN2CCC3(CC2)C(=O)Nc2ccc(C#N)cc23)cc1C(F)(F)F [Compound 411, 1′-(2-{[6-(2-hydroxypropan-2-yl)-5-(trifluoromethyl)pyridin-3-yl]oxy}ethyl)-2-oxo-1,2-dihydrospiro[indole-3,4′-piperidine]-5-carbonitrile] | 436 nM | 22.6 nM
15 | [2H]C([2H])(Oc1cnc2c(c1)CCC(=O)N2[C@H]1C[C@@](C)(O)C1)C([2H])([2H])N1CCC2(CC1)C(=O)Nc1ccc(Cl)cc12 [Compound 426, 5-chloro-1′-[2-({7-oxo-8-[(cis)-3-hydroxy-3-methylcyclobutyl]-5,6,7,8-tetrahydro-1,8-naphthyridin-3-yl}oxy)(1,1,2,2-^2H4)ethyl]-1,2-dihydrospiro[indole-3,4′-piperidin]-2-one] | 597 nM | 37.8 nM
16 | C[C@]1(O)C[C@@H](n2cc3cc(OCCN4CCC5(CC4)C(=O)Nc4ccc(Cl)cc45)cc(C(F)(F)F)c3n2)C1 [Compound 427, 5-chloro-1′-[2-({2-[(cis)-3-hydroxy-3-methylcyclobutyl]-7-(trifluoromethyl)-2H-indazol-5-yl}oxy)ethyl]-1,2-dihydrospiro[indole-3,4′-piperidin]-2-one] | 708 nM | 18.5 nM
17 | C[C@]1(O)C[C@@H](n2cc3cc(OCCN4CCC5(CC4)C(=O)Nc4ccc(C#N)cc45)cc(C(F)(F)F)c3n2)C1 [Compound 428, 2-oxo-1′-[2-({2-[(cis)-3-hydroxy-3-methylcyclobutyl]-7-(trifluoromethyl)-2H-indazol-5-yl}oxy)ethyl]-1,2-dihydrospiro[indole-3,4′-piperidine]-5-carbonitrile] | 1200 nM | 54.3 nM
18 | C[C@]1(O)C[C@@H](n2cnc3cc(OCCN4CCC5(CC4)C(=O)Nc4ccc(C#N)cc45)cc(C(F)(F)F)c32)C1 [Compound 433, 1′-(2-((1-((cis)-3-hydroxy-3-methylcyclobutyl)-7-(trifluoromethyl)-1H-benzo[d]imidazol-5-yl)oxy)ethyl)-2-oxospiro[indoline-3,4′-piperidine]-5-carbonitrile] | 1300 nM | 14.8 nM
19 | C[C@]1(O)C[C@@H](n2nnc3cc(OCCN4CCC5(CC4)C(=O)Nc4ccc(Cl)cc45)cc(C(F)(F)F)c32)C1 [Compound 434, 5-chloro-1′-[2-({1-[(cis)-3-hydroxy-3-methylcyclobutyl]-7-(trifluoromethyl)-1H-1,2,3-benzotriazol-5-yl}oxy)ethyl]-1,2-dihydrospiro[indole-3,4′-piperidin]-2-one] | 1270 nM | 11.2 nM
20 | C[C@]1(O)C[C@@H](n2nnc3cc(OCCN4CCC5(CC4)C(=O)Nc4ccc(C#N)cc45)cc(C(F)(F)F)c32)C1 [Compound 435, 2-oxo-1′-[2-({1-[(cis)-3-hydroxy-3-methylcyclobutyl]-7-(trifluoromethyl)-1H-1,2,3-benzotriazol-5-yl}oxy)ethyl]-1,2-dihydrospiro[indole-3,4′-piperidine]-5-carbonitrile] | 1170 nM | 12.9 nM
21 | C[C@]1(O)C[C@@H](n2cnc3cc(OCCN4CCC5(CC4)C(=O)Nc4ccc(Cl)cc45)cc(C#N)c32)C1 [Compound 439, 5-(2-{5-chloro-2-oxo-1,2-dihydrospiro[indole-3,4′-piperidin]-1′-yl}ethoxy)-1-[(cis)-3-hydroxy-3-methylcyclobutyl]-1H-1,3-benzodiazole-7-carbonitrile] | 603 nM | 14.9 nM
22 | C[C@]1(O)C[C@@H](n2nnc3cc(OCCN4CCC5(CC4)C(=O)Nc4ccc(Cl)cc45)cnc32)C1 [Compound 440, 5-chloro-1′-[2-({3-[(cis)-3-hydroxy-3-methylcyclobutyl]-3H-[1,2,3]triazolo[4,5-b]pyridin-6-yl}oxy)ethyl]-1,2-dihydrospiro[indole-3,4′-piperidin]-2-one] | 552 nM | 54.4 nM
